Assay results reported in publication PMC8533211, “Computationally Assisted Lead Optimization of Novel Potent and Selective MAO-B Inhibitors” (Biomedicines, 2021).
“Also recorded” adds a separate entry of the source. Where two headings read alike, the source gives them in different places.

What was measured:
[1] = tested on: human recombinant MAO B; conditions: cited from earlier work
[2] = tested on: human recombinant MAO A; conditions: cited from earlier work
[3] = biological target: T1, human recombinant MAO-B (Homo sapiens, UniProt P27338); experiment: kynuramine oxidation deamination assay, MAO-B inhibition (IC50); assay type: biochemical; design: purchased BD Biosciences (Bedford, MA, USA); conditions: for Selectivity Index MAO-A/B: ratio of IC50 MAO-A / MAO-B; for IC50: recombinant human MAO-B, kynuramine 50 μM, mean ± S.D. of triplicate
T1 sequence (P27338 1-520): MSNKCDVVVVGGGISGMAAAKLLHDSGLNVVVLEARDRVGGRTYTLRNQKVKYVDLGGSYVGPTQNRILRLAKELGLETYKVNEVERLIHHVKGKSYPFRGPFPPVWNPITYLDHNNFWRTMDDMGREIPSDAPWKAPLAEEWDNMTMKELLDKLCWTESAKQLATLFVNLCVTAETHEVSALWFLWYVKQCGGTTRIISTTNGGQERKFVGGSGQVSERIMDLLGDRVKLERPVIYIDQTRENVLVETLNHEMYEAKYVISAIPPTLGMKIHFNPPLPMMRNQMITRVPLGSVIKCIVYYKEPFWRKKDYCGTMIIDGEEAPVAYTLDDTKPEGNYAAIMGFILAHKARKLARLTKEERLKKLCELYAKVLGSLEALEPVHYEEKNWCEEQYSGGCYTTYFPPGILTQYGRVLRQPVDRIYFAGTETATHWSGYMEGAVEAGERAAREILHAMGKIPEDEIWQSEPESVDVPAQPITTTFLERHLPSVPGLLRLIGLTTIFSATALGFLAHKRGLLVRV
Protocol: A fixed single concentration of kynuramine substrate and varying concentrations of the test inhibitor were used to determine the IC50 values. […] These concentrations of kynuramine were twice the apparent KM value for substrate binding. […] Enzymatic reactions were performed in 50 μL of the assay mixture containing 0.1 M potassium phosphate buffer, pH 7.4. […] Reactions were initiated by the addition of 12.50 μL of MAO-A (to 5 μg/mL) or -B (to 10 μg/mL). The plate was incubated for 20 min at 37 °C, and the enzymatic reaction was terminated by the addition of 18.8 μL of 2N NaOH. Formation of the enzyme product, 4-hydroxyquinoline, was measured fluorometrically using a SpectraMax M5 fluorescence plate reader (Molecular Devices, Sunnyvale, CA, USA) with excitation (320 nm) and emission (380 nm) wavelengths and the Soft Max Pro program. The inhibition effects of enzyme activity were calculated as percent of product formation compared to the corresponding control (enzyme–substrate reaction) without inhibitors. Controls included the assays where the enzyme or the substrate was added after terminating the reaction to determine the interference with the fluorescence measurements. The IC50 values for MAO-A and -B inhibition were calculated from the concentration-dependent inhibition curves using XLFit® software.

[4] = biological target: T2, human recombinant MAO-A (Homo sapiens, UniProt P21397); experiment: kynuramine oxidation deamination assay, MAO-A inhibition (IC50); assay type: biochemical; conditions: kynuramine 80 μM, mean ± S.D. of triplicate
T2 construct: purchased BD Biosciences (Bedford, MA, USA)
T2 sequence (P21397 1-527): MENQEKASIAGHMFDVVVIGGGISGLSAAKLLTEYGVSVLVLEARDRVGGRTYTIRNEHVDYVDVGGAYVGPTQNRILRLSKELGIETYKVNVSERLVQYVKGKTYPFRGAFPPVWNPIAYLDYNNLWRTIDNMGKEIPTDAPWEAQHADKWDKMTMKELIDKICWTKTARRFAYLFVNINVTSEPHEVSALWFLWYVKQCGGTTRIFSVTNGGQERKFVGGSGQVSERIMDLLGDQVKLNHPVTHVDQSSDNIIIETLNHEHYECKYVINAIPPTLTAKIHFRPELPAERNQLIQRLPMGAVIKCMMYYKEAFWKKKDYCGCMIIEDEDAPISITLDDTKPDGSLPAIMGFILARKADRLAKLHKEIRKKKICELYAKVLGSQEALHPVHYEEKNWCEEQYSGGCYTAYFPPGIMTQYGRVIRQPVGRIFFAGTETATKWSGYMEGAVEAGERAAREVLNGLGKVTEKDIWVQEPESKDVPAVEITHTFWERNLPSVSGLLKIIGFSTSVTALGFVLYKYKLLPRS
Protocol: A fixed single concentration of kynuramine substrate and varying concentrations of the test inhibitor were used to determine the IC50 values. The kynuramine concentrations for MAO-A and -B were 80 μM and 50 μM, respectively. These concentrations of kynuramine were twice the apparent KM value for substrate binding. […] Enzymatic reactions were performed in 50 μL of the assay mixture containing 0.1 M potassium phosphate buffer, pH 7.4. […] Reactions were initiated by the addition of 12.50 μL of MAO-A (to 5 μg/mL) or -B (to 10 μg/mL). The plate was incubated for 20 min at 37 °C, and the enzymatic reaction was terminated by the addition of 18.8 μL of 2N NaOH. Formation of the enzyme product, 4-hydroxyquinoline, was measured fluorometrically using a SpectraMax M5 fluorescence plate reader (Molecular Devices, Sunnyvale, CA, USA) with excitation (320 nm) and emission (380 nm) wavelengths and the Soft Max Pro program. The inhibition effects of enzyme activity were calculated as percent of product formation compared to the corresponding control (enzyme–substrate reaction) without inhibitors. Controls included the assays where the enzyme or the substrate was added after terminating the reaction to determine the interference with the fluorescence measurements. The IC50 values for MAO-A and -B inhibition were calculated from the concentration-dependent inhibition curves using XLFit® software.

[5] = biological target: T1, human recombinant MAO-B; experiment: MAO-B inhibition kinetics, Lineweaver–Burk (Ki, type of inhibition); assay type: biochemical; design: purchased BD Biosciences (Bedford, MA, USA); conditions: for Ki: kynuramine 1.90–500 μM, mean ± S.D. of triplicate experiments, read-out: Monoamine Oxidase B Ki
Protocol: (§1) The controls without inhibitor were also run simultaneously. Three sets of assays were performed at varying concentrations of the substrate for each experiment: one control without inhibitor and the others at two fixed concentrations of the inhibitor. The data were analyzed by double reciprocal Lineweaver–Burk plots to determine Ki (i.e., inhibition/binding affinity) values and the kinetic data, namely Km, Vmax, and Ki values, were computed by SigmaPlot 12 [9].
Modified flavonoids (1–4) c were evaluated against MAO-B at varying concentrations of kynuramine, a nonselective substrate, to investigate the nature of inhibition of the enzymes. Based on dose–concentration inhibition, three to five concentrations (below and above the concentration of IC50 values) were selected for the inhibition kinetics experiment.

[6] = biological target: T1, human recombinant MAO-B; experiment: time-dependent inhibition of MAO-B; conditions: read-out: MAO-B enzyme inhibition in time-dependent assay
Protocol: The controls, without inhibitors, were also run simultaneously. Activities of the enzyme were determined as described above, and the percentage of the remaining enzyme activity was plotted against the pre-incubation time to determine time-dependent inhibition.
The control enzyme without inhibitor was also run concurrently. For validation, the MAO- B standards were run simultaneously for the time-dependent assay.

[7] = biological target: T1, human recombinant MAO-B; experiment: reversibility of binding by equilibrium dialysis of the enzyme–inhibitor complex; conditions: for reversibility of binding/inhibition of MAO-B: equilibrium dialysis; for MAO-B enzyme activity recovered after dialysis: 1.5 µM inhibitor, dialyzed overnight at 4 °C, 25 mM buffer pH 7.4
Protocol: Recovery of the catalytic activity of the enzyme was determined by assay of the enzyme activity before and after equilibrium-dialysis. […] After 20 min of incubation at 37 °C, the reaction was stopped by chilling the tubes in the ice bath. All the samples were dialyzed against potassium phosphate buffer (25 mM; pH 7.4) at 4 °C for 14–18 h (with three buffer changes). The control enzyme (without inhibitor) was also run simultaneously using the same procedure and the activity of the enzyme was determined before and after the dialysis.
MAO-B enzyme was incubated with the highest concentration of the analogs for 20 min at 37 °C to allow for binding of the inhibitor with the enzyme and formation of the enzyme–inhibitor complex. Then, the mixtures of the enzyme–inhibitor complex were dialyzed overnight at 4 °C using 25 mM KHPO4 (pH 7.4) buffer. The enzyme activities were examined before and after dialysis.

[8] = biological target: T3, Monoamine Oxidase A (Homo sapiens, UniProt P21397); experiment: MAO-A inhibition kinetics (Ki, type of inhibition); assay type: biochemical
T3 sequence (P21397 1-527): T2 sequence (P21397 1-527)
Protocol: as §1

| Structure (SMILES) | IC50 ([1]; human recombinant, kynuramine) [nM] | IC50 ([2]; human recombinant, kynuramine) [nM] | Selectivity Index MAO-A/B [1] | Selectivity Index MAO-A/B [3] | IC50 [3] [nM] | IC50 [4] [nM] | also measured |
| --- | --- | --- | --- | --- | --- | --- | --- |
| O=c1cc(-c2ccc(O)cc2)oc2cc(O)cc(O)c12 [Apigenin] | 1120 ± 270 | 640 ± 110 |  |  |  |  |  |
| O=c1c(O)c(-c2ccc(O)c(O)c2)oc2cc(O)cc(O)c12 [Quercetin] | 28400 ± 5410 |  | 0.05 |  |  |  | IC50 [2]: 1520 ± 90 nM |
| COc1cc(O)c2c(=O)cc(-c3ccc(OCC(C)C)cc3)oc2c1 [Compound 3c, 5-Hydroxy-2-(4-Isobutoxyphenyl)7-methoxy-4H-chromen-4-one] |  |  |  | >3225.8 | 31 ± 7 | > 100000 | selectivity towards MAO-B compared with MAO-A [3]: > 3000 fold; selectivity towards MAO-B compared with MAO-A ([3]; listed as O-isobutyl): > 3225 fold; Monoamine Oxidase B Type of Inhibition [5]: mixed/irreversible; Ki [5]: 37 ± 9.5 nM; inhibition at 0.3 µM [6]: 70 to 80%; reversibility of binding/inhibition of MAO-B [7]: irreversible MAO-B inhibitors |
| COc1cc(O)c2c(=O)cc(-c3ccc(O)cc3)oc2c1 [Genkwanin] | 350 ± 30 | 140 ± 10 | 0.40 |  |  |  |  |
| COc1ccc(-c2cc(=O)c3c(O)cc(O)cc3o2)cc1 [Acacetin] | 49 ± 0.7 | 121 ± 1 |  |  |  | 105 ± 1.4 | Monoamine Oxidase A Type of Inhibition [8]: competitive/reversible; Ki ([8]; mean ± S.D. of triplicate experiments): 30 ± 1.8 nM; Monoamine Oxidase B Type of Inhibition [5]: competitive/reversible |
| COc1cc(-c2oc3cc(O)cc(O)c3c(=O)c2O)ccc1O [Isorhamnetin] | 21200 ± 4990 | 6420 ± 7690 | 0.30 |  |  |  |  |
| COc1ccc(-c2oc3cc(O)cc(O)c3c(=O)c2OC)cc1 [3,4′-Di-O-methyl kaempferol] | 9670 ± 2390 | 33 ± 42 |  |  |  |  |  |
| COc1cc(O)c2c(=O)cc(-c3ccc(O)c(OC)c3)oc2c1 [Vetulin] | 440 ± 10 | 18800 ± 290 | 42.70 |  |  |  |  |
| COc1cc(O)c2c(=O)cc(-c3ccc(OC(C)C)cc3)oc2c1 [Compound 2c, 5-Hydroxy-2-(4-isopropoxyphenyl)-7-methoxy-4H-chromen-4-one] |  |  |  | 1921.3 | 16 ± 7 | 30740 ± 23 | selectivity towards MAO-B compared with MAO-A [3]: 1921 fold; Monoamine Oxidase B Type of Inhibition [5]: mixed/reversible; Ki [5]: 52 ± 3.1 nM; inhibition at 0.3 µM [6]: 30 to 50%; MAO-B enzyme activity recovered after dialysis [7]: 66%; reversibility of binding/inhibition of MAO-B [7]: reversible inhibition; reversibility of binding/inhibition of MAO-B ([7]; listed as O-isopropyl): reversible MAO-B inhibitors |
| CCCOc1ccc(-c2cc(=O)c3c(O)cc(OC)cc3o2)cc1 [Compound 1c, 5-Hydroxy-7-methoxy-2-(4-propoxyphenyl)-4H-chromen-4-one] |  |  |  | 1478.2 | 33 ± 4.2 | 48800 ± 2010 | selectivity towards MAO-B compared with MAO-A [3]: 1478 fold; Monoamine Oxidase B Type of Inhibition [5]: mixed/partially reversible; Ki [5]: 43 ± 3.8 nM; inhibition at 0.1 µM [6]: 70 to 80%; MAO-B enzyme activity recovered after dialysis [7]: 30%; reversibility of binding/inhibition of MAO-B [7]: partially reversible; also recorded: reversible inhibition; reversibility of binding/inhibition of MAO-B ([7]; listed as O-propyl): reversible MAO-B inhibitors |
| C#CCOc1ccc(-c2cc(=O)c3c(O)cc(OC)cc3o2)cc1 [Compound 4c, 5-Hydroxy-7-methoxy-2-(4-(prop-2-yn-1-yloxy)phenyl)-4H-chromen-4-one] |  |  |  | 1279.6 | 49 ± 1.4 | 62700 ± 5210 | selectivity towards MAO-B compared with MAO-A [3]: 1279 fold; Monoamine Oxidase B Type of Inhibition [5]: mixed/irreversible; Ki [5]: 68 ± 7.1 nM; inhibition at 0.4 µM [6]: 70 to 80%; reversibility of binding/inhibition of MAO-B [7]: irreversible MAO-B inhibitors |
| COc1cc(OC)c2c(=O)cc(-c3ccc(OCC4CC4)cc3)oc2c1 [Compound 5b, 2-(4-(Cyclopropylmethoxy)phenyl)-5,7-dimethoxy-4H-chromen-4-one] |  |  |  | >4.4 | 22800 ± 2100 | > 100000 |  |
| COc1cc(OC)c2c(=O)cc(-c3ccc(OCC(C)C)cc3)oc2c1 [Compound 3b, 2-(4-Isobutoxyphenyl)-5,7-dimethoxy-4H-chromen-4-one] |  |  |  | >13.8 | 7230 ± 2140 | > 100000 |  |
| CCCOc1ccc(-c2cc(=O)c3c(OC)cc(OC)cc3o2)cc1 [Compound 1b, 5,7-Dimethoxy-2-(4-propoxyphenyl)-4H-chromen-4-one] |  |  |  | >58.8 | 1700 ± 76 | > 100000 |  |
| COc1ccc(-c2cc(=O)c3c(O)cc(O)cc3o2)cc1O [Diosmetin] | 1580 ± 880 | 5740 ± 570 | 3.63 |  |  |  |  |
| COc1ccc(-c2oc3cc(O)cc(O)c3c(=O)c2O)cc1 [4′-O-Methyl kaempferol] | > 100000 | 1350 ± 198 |  |  |  |  |  |
| COc1cc(OC)c2c(=O)cc(-c3ccc(OC(C)C)cc3)oc2c1 [Compound 2b, 2-(4-Isopropoxyphenyl)-5,7-dimethoxy-4H-chromen-4-one] |  |  |  | >37.9 | 2640 ± 88 | > 100000 |  |
